From patent publication US20110288154A1, “RNA Interference Mediated Inhibition of Epithelial Sodium Channel (ENaC) Gene Expression Using Short Interfering Nucleic Acid (siNA)” (MERCK & CO., INC., priority 2008, published 2011)
pIC50: −log10 of the molar value. [invAb] = inverted abasic unit; m = 2'-O-methyl; r = 2'-OH (RNA); f = 2'-fluoro

Tested on: ENaCα mRNA
Assay: Screening of ENaCα siNAs in human A549 cells (quantitative RT-PCR)
Format: cell-based
Design: Percent Reduction of the ENaCα mRNA relative to a non-targeting control siNA (NTC): concentration or dose not given beside the values
Conditions: for Avg ENaCα Expression / Mean (level of ENaCα expression normalized to the level of GAPDH) / Percent Reduction of the ENaCα mRNA relative to a non-targeting control siNA (NTC) / Avg GAPDH Expression: human A549 cells, n = 3; for Avg ENaCα Expression: 25 nM siNA with Lipofectamine 2000, harvested 24 hours post-transfection; for Mean (level of ENaCα expression normalized to the level of GAPDH) / Percent Reduction of the ENaCα mRNA relative to a non-targeting control siNA (NTC) / Avg GAPDH Expression: 24 hours post-transfection; for Avg GAPDH Expression: housekeeping gene used for normalisation; for pIC50 / Human % KD (efficacy of ENaCα mRNA knockdown): human cell line; for pIC50: dose response, read-out: Human IC50 (potency of ENaCα mRNA knockdown); for Human % KD (efficacy of ENaCα mRNA knockdown): summary
Method: siNA constructs (Table 1b) may be tested for efficacy in reducing ENaC RNA expression in, for example, A549 human lung carcinoma cells. A549 (human; ATCC cat# CCL-185) cells were cultured at 37° C. in the presence of 5% CO2 and grown in Ham's F12K medium with 2 mM L-glutamine adjusted to contain 1.5 g/L sodium bicarbonate and supplemented with fetal bovine serum at a final concentration of 10% and 100 U/mL penicillin. The A549 cells were plated approximately 24 hours before transfection in 96-well plates at 7,500 cells/well, 100 μl/well. After 24 hours complexes containing siNA and Lipofectamine 2000 (Invitrogen) were created as follows: a solution of Lipofectamine 2000 in OPTI-MEM was prepared containing Lipofectamine 2000 at a final concentration of 14 μg/ml. In parallel, solutions of the siNAs were prepared in OPTI-MEM at a final concentration of 150 nM. After both solutions were incubated at 20° C. for 20 minutes an equal volume of the siNA solutions and the Lipofectamine 2000 solution were added together for each of the siNAs. The resultant solution has the siNAs at a final concentration of 75 nM and Lipofectamine 2000 at a final concentration of 7 μg/ml. This solution was incubated at 20° C. for 20 minutes. After incubation 50 μl of the solution were added to each of the wells (in triplicate). The final concentration of siNA in each well was 25 nM and the final concentration of Lipofectamine 2000 in each well was 2.33 μg/ml. […] Dose response curves were determined in a similar manner with each concentration being done in triplicate and maintaining a constant amount of Lipofectamine 2000 in each transfection.
RNA was extracted from 96-well plates using the Invitek Invisorb RNA Cell HTS 96 Kit/C (Cat# 70619000) with a slightly modified protocol. The details of the protocol for isolating RNA from each plate are described as follows:
1) Aspirate media with rake 2) Add 150 ul/well Lysis buffer 3) Place on plate shaker for 1 minute 4) Place DNA binding plate on top of 0.5 ml collection plate 5) Pipette 190 ul up and down twice and add to DNA binding plate 6) Cover plate 7) Centrifuge plates 4 minutes at 4000 RPM 8) Discard DNA binding plate 9) Place the RNA binding plate on top of 2 ml collection plate 10) Add 150 ul/well of Binding Buffer R to 0.5 ml collection plate 11) Move contents of 0.5 ml collection plate to RNA binding plate 12) Let incubate for 1 minute 13) Centrifuge plates 4 minutes at 4000 RPM 14) Add 600 ul/well of Wash Buffer R1 to RNA binding plate 15) Centrifuge plates 4 minutes at 4000 RPM 16) Dump wash buffer from 2 ml collection plate 17) Add 400 ul/well of Wash Buffer R2 to RNA binding plate 18) Centrifuge plates 4 minutes at 4000 RPM 19) Add 400 ul/well of Wash Buffer R2 to RNA binding plate 20) Centrifuge plates 10 minutes at 4000 RPM 21) Dump wash buffer from 2 ml collection plate 22) Centrifuge plates 3 minutes at 4000 RPM 23) Discard 2 ml collection plate and place RNA binding plate on to microtiter plate 24) Add 100 ul/well of elution buffer to RNA binding plate 25) Incubate for 2 minutes 26) Seal plate 27) Centrifuge plates 3 minutes at 4000 RPM 28) Discard RNA binding plate 29) Cover microtiter plate for storage in −80 freezer
A series of probes and primers were used to detect the various mRNA transcripts of the genes of ENaCa and GAPDH in mouse, rat, and human cell lines. The assays were performed on an ABI 7500 instrument, according to the manufacturer's instructions. Within each experiment, the baseline was set in the exponential phase of the amplification curve, and based on the intersection point of the baselines with the amplification curve, a Ct value was assigned by the instrument. This Ct value was then assigned a QTY value based on the Standard Curve. The standard curve in the various experiments herein used 1 ng to 300 ng of RNA extracted from the same cell line used for the experimental transfections. […]

| Substance | Avg ENaCα Expression | Mean (level of ENaCα expression normalized to the level of GAPDH) | Percent Reduction of the ENaCα mRNA relative to a non-targeting control siNA (NTC) [%] | Avg GAPDH Expression | pIC50 | Human % KD (efficacy of ENaCα mRNA knockdown) |
| --- | --- | --- | --- | --- | --- | --- |
| B uGuGcAAccAGAAcAAAuc TTB / GAUuuGuucuGGuuGcAcAUU (chain 1 UGUGCAACCAGAACAAAUCTT; chain 2 GAUUUGUUCUGGUUGCACAUU; siRNA; B caps on sense ends, letter-case modifications not given here, further chemistry not given here) [Site 782] | 39.99 | 0.61 | 60.9 | 66.25 | 9.44 | 60-85% |
| B uccuGuccAAccuGGGcAG TTB / CUGcccAGGuuGGAcAGGAUU (sense UCCUGUCCAACCUGGGCAGTT; antisense CUGCCCAGGUUGGACAGGAUU; siRNA; sense: DNA at AGT, 2'-fluoro at CU, [invAb] at 5' end, 3' end, backbone not given here; antisense: sugars from the 5' end rrrfffmmmffmmmfmmmmmm, backbone not given here) [Site 1739] | 75.77 | 0.75 | −13.8 | 100.60 | – | – |
| B GccAuccGccuGGuGuGcu TTB / AGCAcAccAGGcGGAuGGcUU (sense GCCAUCCGCCUGGUGUGCUTT; antisense AGCACACCAGGCGGAUGGCUU; siRNA; sense: DNA at AGT, 2'-fluoro at CU, [invAb] at 5' end, 3' end, backbone not given here; antisense: sugars from the 5' end rrrmfmffmmmfmmrfmmfmm, backbone not given here) [Site 310] | 68.10 | 1.57 | −1.0 | 45.78 | – | – |
| B cAcAAccGcAuGAAGAcGG TTB / CCGucuucAuGcGGuuGuGUU (chain 1 CACAACCGCAUGAAGACGGTT; chain 2 CCGUCUUCAUGCGGUUGUGUU; siRNA; chain 1: DNA at AGT, 2'-fluoro at CU, [invAb] at 5' end, 3' end, backbone not given here; chain 2: sugars from the 5' end rrrfffffmfmfmmffmfmmm, backbone not given here) [Site 334] | 58.30 | 1.49 | 4.5 | 42.86 | – | – |
| B cAcuccuGcuuccAGGAGA TTB / UCUccuGGAAGcAGGAGuGUU (sense CACUCCUGCUUCCAGGAGATT; antisense UCUCCUGGAAGCAGGAGUGUU; siRNA; sense: DNA at AGT, 2'-fluoro at CU, [invAb] at 5' end, 3' end, backbone not given here; antisense: sugars from the 5' end rrrfffmmmmmfmmmmmfmmm, backbone not given here) [Site 1351] | 68.14 | 1.12 | 28.2 | 64.22 | – | – |
| B GGcAGccAGuGGAGccuGu TTB / ACAGGcuccAcuGGcuGccUU (sense GGCAGCCAGUGGAGCCUGUTT; antisense ACAGGCUCCACUGGCUGCCUU; siRNA; sense: DNA at AGT, 2'-fluoro at CU, [invAb] at 5' end, 3' end, backbone not given here; antisense: sugars from the 5' end rrrmmffffmffmmffmffmm, backbone not given here) [Site 1753] | 84.05 | 0.66 | 0.6 | 128.19 | – | – |
| B GcAuGAAGAcGGccuucuG TTB / CAGAAGGccGuCuucAuGcUU (chain 1 GCAUGAAGACGGCCUUCUGTT; chain 2 CAGAAGGCCGUCUUCAUGCUU; siRNA; chain 1: DNA at AGT, 2'-fluoro at CU, [invAb] at 5' end, 3' end, backbone not given here; chain 2: sugars from the 5' end rrrmmmmffmfmfffmfmfmm, backbone not given here) [Site 341] | 62.42 | 1.62 | −4.3 | 48.12 | – | – |
| B GccAGuGGAGccuGuGGuu TTB / AACcAcAGGcuccAcuGGcUU (sense GCCAGUGGAGCCUGUGGUUTT; antisense AACCACAGGCUCCACUGGCUU; siRNA; sense: DNA at AGT, 2'-fluoro at CU, [invAb] at 5' end, 3' end, backbone not given here; antisense: sugars from the 5' end rrrfmfmmmffffmffmmfmm, backbone not given here) [Site 1757] | 66.53 | 0.66 | 0.0 | 101.11 | – | – |
| B AccGcAuGAAGAcGGccuu TTB / AAGGccGucuucAuGcGGuUU (chain 1 ACCGCAUGAAGACGGCCUUTT; chain 2 AAGGCCGUCUUCAUGCGGUUU; siRNA; chain 1: DNA at AGT, 2'-fluoro at CU, [invAb] at 5' end, 3' end, backbone not given here; chain 2: sugars from the 5' end rrrmffmfffffmfmfmmfmm, backbone not given here) [Site 338] | 65.83 | 0.90 | 42.2 | 76.32 | – | – |
| B uGuGGcuGuGccuAcAucu TTB / AGAuGuAGGcAcAGccAcAUU (sense UGUGGCUGUGCCUACAUCUTT; antisense AGAUGUAGGCACAGCCACAUU; siRNA; sense: DNA at AGT, 2'-fluoro at CU, [invAb] at 5' end, 3' end, backbone not given here; antisense: sugars from the 5' end rrrfmfmmmfmfmmffmfmmm, backbone not given here) [Site 1384] | 82.65 | 0.80 | −21.6 | 103.38 | – | – |
| B GuGuGGcuGuGccuAcAuc TTB / GAUGuAGGcAcAGccAcAcUU (sense GUGUGGCUGUGCCUACAUCTT; antisense GAUGUAGGCACAGCCACACUU; siRNA; B caps on sense ends, letter-case modifications not given here, further chemistry not given here) [Site 1383] | 40.44 | 0.78 | 49.8 | 52.36 | 9.39 | 50-70% |
